Experimental data: the NIST ThermoML archive (doi:10.1016/j.jct.2015.01.007)
± gives the expanded uncertainty stated by the source.

Conditions: for molar entropy: 101.33 kPa

O=P([O-])([O-])[O-].[Fe+2].[Li+] [iron(II) lithium phosphate]
molar entropy [J/K/mol]
Conditions | Crystal 1, combination of DSC and relaxation calorimetry | Crystal 2, relaxation calorimetry
5 K | – | 0.0577 ± 0.0068
10 K | – | 0.1645 ± 0.019
15 K | – | 0.5534 ± 0.065
20 K | – | 1.241 ± 0.15
25 K | – | 2.309 ± 0.14
30 K | – | 3.785 ± 0.23
35 K | – | 5.708 ± 0.35
40 K | – | 8.078 ± 0.49
42 K | – | 9.158 ± 0.56
45 K | – | 10.96 ± 0.67
46 K | – | 11.63 ± 0.71
47 K | – | 12.33 ± 0.75
48 K | – | 13.07 ± 0.8
49 K | – | 13.86 ± 0.84
49.24 K | 14.06 ± 0.86 | 14.06 ± 0.86
50 K | 14.7 ± 0.9 | –
51 K | 15.21 ± 0.93 | –
52 K | 15.67 ± 0.95 | –
53 K | 16.11 ± 0.98 | –
54 K | 16.53 ± 1 | –
55 K | 16.95 ± 1 | –
60 K | 19.01 ± 1.2 | –
65 K | 21.09 ± 1.3 | –
70 K | 23.23 ± 1.4 | –
80 K | 27.71 ± 1.7 | –
90 K | 32.41 ± 2 | –
100 K | 37.27 ± 2.3 | –
110 K | 42.25 ± 2.6 | –
120 K | 47.28 ± 2.9 | –
130 K | 52.34 ± 3.2 | –
140 K | 57.41 ± 3.5 | –
150 K | 62.46 ± 3.8 | –
160 K | 67.48 ± 4.1 | –
170 K | 72.46 ± 4.4 | –
180 K | 77.39 ± 4.7 | –
190 K | 82.26 ± 5 | –
200 K | 87.07 ± 5.3 | –
210 K | 91.83 ± 5.6 | –
220 K | 96.51 ± 5.9 | –
230 K | 101.1 ± 6.2 | –
240 K | 105.7 ± 6.4 | –
250 K | 110.2 ± 6.7 | –
260 K | 114.6 ± 7 | –
270 K | 119 ± 7.3 | –
280 K | 123.3 ± 7.5 | –
290 K | 127.5 ± 7.8 | –
298.15 K | 130.9 ± 8 | –
300 K | 131.7 ± 8 | –
320 K | 139.9 ± 8.5 | –
340 K | 147.9 ± 9 | –
360 K | 155.6 ± 9.5 | –
380 K | 163.1 ± 9.9 | –
400 K | 170.5 ± 10 | –
420 K | 177.6 ± 11 | –
440 K | 184.6 ± 11 | –
460 K | 191.4 ± 12 | –
480 K | 198 ± 12 | –
500 K | 204.4 ± 12 | –
520 K | 210.8 ± 13 | –
540 K | 216.9 ± 13 | –
560 K | 223 ± 14 | –
580 K | 228.9 ± 14 | –
600 K | 234.6 ± 14 | –
620 K | 240.3 ± 15 | –
640 K | 245.8 ± 15 | –
660 K | 251.2 ± 15 | –
680 K | 256.5 ± 16 | –
700 K | 261.8 ± 16 | –
720 K | 266.9 ± 16 | –
740 K | 271.9 ± 17 | –
760 K | 276.8 ± 17 | –

Conditions | Triple point temperature [K]
Crystal 2, Relaxation calorimeter | 49.24 ± 0.77
